In US20250235437A1, “PROTEOLYSIS TARGETING CHIMERA (PROTAC) MOLECULE FOR DEGRADATION OF ENL AND CANCER THERAPY” (Baylor College of Medicine, priority 2022, published 2025):

Columns and labels:
[1] = In vivo toxicity in C57BL/6 mice; settings: 30 mg/kg/day for 13 days
Experimental: In vivo antitumor activity of compound 1 was evaluated in a commonly used mouse model of Molm-13 leukemia. First, in vivo toxicity was assessed in C57BL/6 mice.

[2] = system: Hela cell; experiment: Anti-proliferative activity, Hela cells; format: cell-based; settings: Hela (cervical) cells; read-out: EC50, proliferation
[3] = system: Panc1; settings: read-out: EC50, proliferation; Panc1 (pancreatic) cells
Source text: (§1) FIGS. 6A-6G summarize the antitumor activities of ENL-targeting compounds.

[4] = system: Kasumi-1, RPMI-8226 and U266 cells; settings: read-out: EC50, proliferation; AML Kasumi-1 and myeloma RPMI-8226 and U266 cells, range over cell lines
Source text: as §1

[5] = system: AF9, AFF4, cyclin-T1 and H3K79me2; experiment: ChIP-qPCR, AF9, AFF4, cyclin-T1 and H3K79me2 at Myc and HoxA9 gene promoters; format: cell-based; settings: 500 nM
Source text: (§2) Chromatin immunoprecipitation (ChIP) followed by qPCR was used to further probe the activity of compound 1 in the gene promoters of Myc and HoxA9, two characteristic MLL1 target genes.

[6] = system: MV4;11 cells; settings: footnote b: reported in Li, et al. J Hematol Oncol, 2022, read-out: Anti-proliferative activity EC50, MV4; cited from earlier work
[7] = molecular target: T1, mutant ENL (mENL) (Homo sapiens, UniProt Q03111, INS117NHL); experiment: Degradation of mutant and WT ENL in transfected HEK293T cells; format: cell-based
T1 construct: expressed in transfected cells; host or cells: HEK293T
T1 sequence (Q03111 with tags, fused parts or gaps INS117NHL): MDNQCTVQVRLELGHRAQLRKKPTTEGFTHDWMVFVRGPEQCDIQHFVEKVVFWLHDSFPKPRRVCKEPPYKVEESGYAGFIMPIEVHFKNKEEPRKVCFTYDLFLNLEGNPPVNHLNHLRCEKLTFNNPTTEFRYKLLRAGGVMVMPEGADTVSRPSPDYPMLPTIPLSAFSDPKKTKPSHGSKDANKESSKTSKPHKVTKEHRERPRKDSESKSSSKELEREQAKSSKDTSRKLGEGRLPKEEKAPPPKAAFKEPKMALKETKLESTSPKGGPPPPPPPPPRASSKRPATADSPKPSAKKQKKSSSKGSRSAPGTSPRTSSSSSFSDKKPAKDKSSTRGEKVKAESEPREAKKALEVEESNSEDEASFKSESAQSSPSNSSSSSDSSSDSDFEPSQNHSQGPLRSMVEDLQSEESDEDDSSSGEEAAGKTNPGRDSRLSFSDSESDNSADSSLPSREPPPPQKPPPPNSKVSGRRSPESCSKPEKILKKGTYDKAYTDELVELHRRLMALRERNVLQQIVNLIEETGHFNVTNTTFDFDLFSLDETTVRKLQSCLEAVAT
T1 sequence (Q96SW2 whole entry partner): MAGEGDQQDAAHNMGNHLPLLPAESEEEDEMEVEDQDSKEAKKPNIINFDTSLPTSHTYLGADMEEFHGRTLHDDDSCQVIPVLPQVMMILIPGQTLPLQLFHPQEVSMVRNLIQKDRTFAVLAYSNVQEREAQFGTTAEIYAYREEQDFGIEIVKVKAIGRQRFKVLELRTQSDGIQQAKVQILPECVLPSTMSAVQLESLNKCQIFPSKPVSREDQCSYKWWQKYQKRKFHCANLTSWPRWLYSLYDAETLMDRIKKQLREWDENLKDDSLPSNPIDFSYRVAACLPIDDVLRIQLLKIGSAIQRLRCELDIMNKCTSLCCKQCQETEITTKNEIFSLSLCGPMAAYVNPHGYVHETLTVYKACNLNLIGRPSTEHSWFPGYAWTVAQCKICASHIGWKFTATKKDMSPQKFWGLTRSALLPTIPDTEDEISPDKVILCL
Experimental: Ability of compound 1 to degrade mutant ENL, which has been implicated to cause Wilms tumor, was evaluated. […] A pcDNA3.1(+)-N-DYK plasmid containing a mutant ENL (mENL) with a short insertion of -NHL- between L117 and R118 was transfected into 5×10^5 HEK293T cells. Upon incubation for 24 h, expression of the FLAG-tagged mENL can be dose-dependently detected with as low as […] of the plasmid (FIG. 7A). Using a FLAG antibody appeared to be less quantitative because of a higher background staining for the control samples (FIGS. 7A-7C, left panels).
With 0.1 μg of the plasmid, compound 1 can efficiently degrade both WT and mutant ENL proteins with Dmax of ˜95% at ˜500 nM upon 24 h incubation (FIG. 7B). […] It was ineffective with […] of the plasmid (not shown), presumably because the rate of mENL synthesis in cells was higher than that of 1-mediated degradation.

[8] = system: H3K79 methylation; experiment: Nuclear H3K79 methylation in MV4;11 cells, 4 days; format: cell-based
Source text: Applicant further investigated how compound 1 affects ENL, AF9 and other proteins of SEC in the cytoplasmic and nuclear compartments, the latter of which are more relevant to the functions of these transcription cofactors. […] Upon treatment of MV4;11 cells with these compounds for 4 days, cytoplasmic and nuclear proteins were separated and subjected to SDS-PAGE/Western blot.

[9] = system: Molm-13 cells; experiment: Gene profiling and GSEA in Molm-13 cells; format: cell-based; settings: 500 nM
Experimental: Gene profiling was performed to find how compound 1 affects global gene transcriptome. mRNAs from the control and compound 1 (500 nM) treated Molm-13 cells were extracted, purified and sequenced. Bioinformatic analysis was performed to find differentially expressed genes between the treated and control cells, which were used for gene set enrichment analysis (GSEA). […] These clearly indicate that treatment with compound 1 recapitulated ENL knockout with similar patterns of gene expression changes.

[10] = molecular target: T2, ENL YEATS-H3K27ac interaction (Homo sapiens, UniProt Q03111); experiment: ALPHA assay, inhibition of ENL YEATS-H3K27ac interaction; settings: read-out: IC50, inhibition of ENL YEATS-H3K27ac interaction
T2 sequence (Q03111 1-138 limits assumed): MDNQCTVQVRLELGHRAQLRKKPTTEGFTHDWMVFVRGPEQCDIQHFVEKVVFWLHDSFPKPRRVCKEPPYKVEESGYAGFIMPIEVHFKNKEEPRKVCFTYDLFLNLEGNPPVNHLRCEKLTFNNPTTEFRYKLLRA

[11] = molecular target: T3, ENL (Homo sapiens, UniProt Q03111); experiment: ChIP-qPCR, ENL at Myc and HoxA9 gene promoters; format: cell-based; settings: 500 nM
T3 construct: tested whether the compounds degrade ENL and AF9 in MV4;11 leukemia cells; endogenous in cells; host or cells: MV4;11; Molm-13
T3 sequence (Q03111 1-559): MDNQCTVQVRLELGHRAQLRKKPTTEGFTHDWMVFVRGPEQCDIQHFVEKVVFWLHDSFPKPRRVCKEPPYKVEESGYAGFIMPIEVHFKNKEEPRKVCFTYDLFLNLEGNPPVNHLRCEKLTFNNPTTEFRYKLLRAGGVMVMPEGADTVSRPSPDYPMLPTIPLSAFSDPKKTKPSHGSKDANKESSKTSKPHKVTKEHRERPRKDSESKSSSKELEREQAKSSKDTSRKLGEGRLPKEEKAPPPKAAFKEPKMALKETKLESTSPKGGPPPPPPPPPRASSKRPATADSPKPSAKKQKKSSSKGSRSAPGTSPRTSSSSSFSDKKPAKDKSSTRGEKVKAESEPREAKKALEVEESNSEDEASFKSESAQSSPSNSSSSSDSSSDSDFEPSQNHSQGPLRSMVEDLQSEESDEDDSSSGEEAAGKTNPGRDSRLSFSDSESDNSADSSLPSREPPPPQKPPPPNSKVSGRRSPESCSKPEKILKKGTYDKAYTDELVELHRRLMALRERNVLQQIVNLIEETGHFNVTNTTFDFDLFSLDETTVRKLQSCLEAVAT
Source text: as §2

[12] = system: Molm-13 cells; experiment: Anti-proliferative activity, Molm-13 cells; format: cell-based; settings: Molm-13 cells, FIG. 6B
[13] = system: Molm-13 leukemia; experiment: Subcutaneous Molm-13 leukemia xenograft in NOD-SCID mice; format: in vivo
Experimental: In vivo antitumor activity of compound 1 was evaluated in a commonly used mouse model of Molm-13 leukemia. First, in vivo toxicity was assessed in C57BL/6 mice. […] Next, 10^6 Molm-13 cells were injected subcutaneously into NOD-SCID mice, which developed palpable tumors in ˜1 week and grew rapidly.

## C[C@H]1CCCN1Cc1nc2cc(NC(=O)c3ccc4c(cnn4CCCCCCCCNc4cccc5c4C(=O)N(C4CCC(=O)NC4=O)C5=O)c3)ccc2[nH]1 (some centres unmarked) [Compound 1]
[1]
  body weight: did not cause significant weight losses
  hematopoiesis and overt toxicities: did not inhibit normal hematopoiesis or cause other overt toxicities
[1]; blood test on day-14
  blood cell counts vs control: no significant differences in blood cell counts
[2]
  EC50: > 50000 nM
[3]
  EC50: > 50000 nM
[4]
  EC50: 1100 to 4100 nM
[5]
  AF9, AFF4, cyclin-T1 and H3K79me2 at Myc and HoxA9 gene loci: did not significantly lower down
[6]
  EC50: 570 nM
[7]; 0.1 μg plasmid, ~500 nM, 24 h incubation
  Dmax, WT and mutant ENL: ~95%
[7]; 0.2 μg plasmid, 500 nM
  degradation of WT and mutant ENLs: reduced efficiency
[7]; 1 g of the plasmid
  degradation of WT and mutant ENLs: ineffective
[8]
  nuclear levels of H3K79 methylation: not consistently affected
[9]; 4 days, GSEA panel 1
  normalized enrichment score (NES), gene set upregulated upon ENL knockout: 7.46
[9]; 4 days, GSEA panel 2
  normalized enrichment score (NES), gene set downregulated upon ENL knockout: −4.26
[9]; GSEA panel 7
  transcription of Myc-target genes: significantly downregulated
[9]; GSEA panels 3 and 4
  gene sets regulated by knockdown of MLL-AF9 or -ENL: significantly up- and down-regulated
[9]; GSEA panels 5 and 6
  expression of HoxA9-regulated genes: reversed expression patterns
[10]
  IC50: 170 nM
[11]
  ENL levels at Myc and HoxA9 gene promoters: significantly reduced
[12]
  time-dependent activity against cell proliferation: did not inhibit cell proliferation during the first 4 days
[13]; 30 mg/kg/day for Day 3-15
  body weight: did not cause significant weight losses
  tumor growth: significantly inhibited tumor growth
[13]; 30 mg/kg/day for Day 3-15, p<0.01
  animal survival: prolonged animal survivals
